These results are taken from paper PMC6014988, “Precision therapeutic targeting of human cancer cell motility” (Nature Communications, 2018).

pIC50: −log10 of the molar value.

Data set [1] in a line: Three-day MTT cell growth inhibition assay, PC3M. The class given is cell-based, human. The settings on record: human; PC3M; 3 days. The text has this:
(§1) Assays were in replicates of N = 3, and were repeated. […]
(§2) Values are the mean±SEM of a single experiment, in
(§3) replicates of N=4, repeated at least once (also N=4).
(§4) Supplementary Figure 1b. Synthetic round #2.

A further data set concerns PC3M. The data set is described as follows: Three-day MTT cell growth inhibition assay, PC3M. The settings on record: Homo sapiens, PC-3M, 72 h, PC3M. The class given is cell-based, human.
From the text: as §1, §2, §3, §4

The nature of data set [2]: Three-day MTT cell growth inhibition assay, PC3. The class given is cell-based, human. The conditions noted are these: human, PC3 cells.
A further data set has as its system PC3. In words: Three-day MTT cell growth inhibition assay, PC3. The conditions noted are these: Homo sapiens, PC-3, 72 h, 3 days. Type of data set: cell-based, human.
Data set [3] in a line: Three-day MTT cell growth inhibition assay, 1542NPTX. The class given is cell-based, human. The settings on record: human, 1542NPTX cells.
Another data set concerns 1542NPTX. The data set is described as above. Type of data set: cell-based, human. The settings on record: Homo sapiens, 72 h, 3 days.
Data set [4] can be described thus: Three-day MTT cell growth inhibition assay, 1542CPTX. Type of data set: cell-based, human. The conditions noted are these: human, 1542CPTX cells.
A further data set relates to 1542CPTX. The description is as above. Type of data set: cell-based, human. The conditions noted are these: Homo sapiens, 72 h, 3 days.
Data set [5] in a line: Three-day MTT cell growth inhibition assay, 1532NPTX. Type of data set: cell-based, human. The settings on record: human, 1532NPTX cells.
The next data set deals with 1532NPTX. Described as above. The conditions noted are these: Homo sapiens, 72 h, 3 days. The class given is cell-based, human.
Data set [6] in a line: Three-day MTT cell growth inhibition assay, 1532CPTX. The class given is cell-based, human. The settings on record: human, 1532CPTX cells.
The next data set relates to 1532CPTX. The description is as above. The class given is cell-based, human. The conditions noted are these: Homo sapiens, 72 h, 3 days.
For data set [7], the system named is protein phosphorylation in PC3-M and PC3 cells. In words: KinomeView phospho-motif antibody screen. Type of data set: cell-based, human. The conditions noted are these: 10 µM, 3 days, ± TGFβ. The method, then:
The Kinoview™ and PhosphoScan™ assays were performed by Cell Signaling Technology Inc.
Supplementary Figure 10. Proteomic analysis of the effects of KBU2046 on the kinome. (a-c) Screening for effects on the kinome. PC3-M cells were pre-treated with 10 µM KBU2046, genistein or vehicle control for 3 days, then with ± TGFβ, as indicated. Resultant cell lysate, as well as lysate from tumors from mice treated with 150 mg/kg KBU2046 or control mice (from manuscript Figure 2a), were then probed with the KinomeView® panel of antibodies by Western blot. In instances where KBU2046 was inhibiting protein phosphorylation in cells and in tumors, a repeat experiment of PC3-M cells was conducted (Experiment #2). In addition to including PC3-M cells, as in Experiment #1, Experiment #2 expanded to examine effects on PC3 cells. (a) The identification of an 83 kDa band of interest (red arrows). This constitutes the only change […]
as in tumor tissue. […] (c) All […]
other Western blots of phospho-motif antibodies that were evaluated on initial screen. NI = tumor not informative; this denotes a tumor sample that yielded an abnormal coomassie blue staining pattern. Data from this sample was therefore not considered further.
(also on this page, place not known: cat #C32G12; tPE cat #2981; sRXY, FXs NI NI cat #2351; tXR cat #23C8D12; RXRXX(s/t) NI NI)
(1 picture or pasted object on this page, not shown here)

Data set [8] concerns human prostate cells (PC3, PC3-M, 1532NPTX, 1542NPTX, 1532CPTX, 1542CPTX). More on the design: method as in PMID 15833883. The settings on record: human PCa cells, nanomolar concentrations; cited from earlier work.
Data set [9] relates to human PCa PC3-M cell orthotopic implants. More on the design: method as in PMID 18339885. The conditions noted are these: murine orthotopic model; cited from earlier work.
For the next data set, the target named is MKK4 (Homo sapiens, UniProt P45985). The arrangement: method as in PMID 19638505. The conditions noted are these: low nanomolar concentrations; cited from earlier work.
MKK4, sequence (P45985 whole entry): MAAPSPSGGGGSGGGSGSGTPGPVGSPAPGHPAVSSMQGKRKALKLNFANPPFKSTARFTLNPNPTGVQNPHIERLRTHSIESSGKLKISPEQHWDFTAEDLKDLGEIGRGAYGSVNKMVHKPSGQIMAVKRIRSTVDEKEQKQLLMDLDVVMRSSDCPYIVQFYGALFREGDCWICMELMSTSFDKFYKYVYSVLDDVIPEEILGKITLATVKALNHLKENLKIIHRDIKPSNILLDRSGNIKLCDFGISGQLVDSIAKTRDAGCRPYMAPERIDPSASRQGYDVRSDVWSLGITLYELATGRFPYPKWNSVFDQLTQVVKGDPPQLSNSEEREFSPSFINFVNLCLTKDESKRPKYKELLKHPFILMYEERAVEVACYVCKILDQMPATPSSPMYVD
Data set [10] deals with matrix metalloproteinase 2 (MMP-2). The arrangement: method as in PMID 19638505. The settings on record: prospective human trial; cited from earlier work.
Another data set has as its system PC3-M cells. In words: Boyden chamber cell invasion assay, PC3-M cells. The settings on record: PC3-M cells, 10 µM compound, 3 days. Type of data set: cell-based, human. The method, then:
Boyden chamber cell invasion assays were performed as previously described by us[30], using either denatured collagen (BD Biosciences) or type IV human collagen (BD Biosciences), with all experiments repeated, each in N = 4 replicates. In some experiments, as indicated, cells were transfected with an expression plasmid, using Lipofectamine 2000™ (Invitrogen), or with siRNA, using DharmaFect Duo (Thermo Scientific) and co-transfected with β-Galactosidase (Plasmid pCMV•SPORT-βgal; Life Technology). […]
For cell invasion, PC3-M cells […]
were treated with 10 µM compound for a total of 3 days, and cell invasion assays were run at the end of the 3 day period, in the presence of compound. Values are the mean±SEM of three separate experiments, each run in replicates of N=3. […]
assays were performed with PC3-M cells. Values are the mean±SEM of a single experiment, in replicates of N=4, repeated at least once (also N=4). […]

The next data set deals with over 9000 human proteins. In words: ProtoArray Human Protein Microarray binding assay. The settings on record: levels >/= 10 fold above background. The method, then: The ProtoArray® assay, using the Human Protein Microarray platform, was performed by Invitrogen. […]
followed by detection with FITC-streptavidin, and visualization by fluorescent microscopy (with equal exposure times). (d) Protein array hybridization. KBU2046-biotin was hybridized to ProtoArray® Human Protein Microarray’s at 0.5 and 10 µM with and without 10 fold excess free KBU2046. We first sought proteins that met the following criteria, and did so at both 0.5 and 10 µM concentrations of KBU2046-biotin (in the absence of free KBU2046): Z-Score greater than 2.5, Z-Factor greater than 0.5, CI P-value less than 0.05, negative control value <2,000 (relative fluorescence units; RFUs), and a signal/negative control signal of >10 and >5 for 10 µM and 0.5 µM conditions, respectively. This yielded 3 proteins, shown in table, for an initial hit rate of 0.03%. We then required free KBU2046 to inhibit binding by >75%. Of the two remaining candidates, we eliminated isovaleryl-CoA dehydrogenase (ICD). Its binding signal doubled on […]
suspected non-specific binding by the biotin-linker moiety. We deemed cysteine and glycine-rich protein 1 (CSRP1) our top priority protein, though its binding characteristics at 10 µM + free KBU2046 were similar to ICD, albeit not as extreme. We thus evaluated whether KBU2046- […]
There were two additional notable findings from protein array studies. […]

For the compound `O=c1c(-c2ccc(O)cc2)coc2cc(O)cc(O)c12` [Genistein, 4′,5,7-trihydroxyisoflavone, reference compound], the viability at 3 days, 50 µM was determined as 46.2% in data set [1]; 39.3% in data set [2]; 80.5% in data set [3]; 77.4% in data set [4]; 66.9% in data set [5]; 71.7% in [6]. Moreover, the IC20 with PC3M (concentration inhibiting cell growth by 20% after 3 days) amounted to 17.5 µM; in the data set with PC3 it was 18 µM; in the data set on 1542NPTX, 18.7 µM; in the data set on 1542CPTX, 24.7 µM; in the data set with 1532NPTX, 23 µM; in the data set with 1532CPTX it was 30.8 µM. Also, the pIC50 in the data set on PC3M (concentration inhibiting cell growth by 50% after 3 days) was 4.34; with PC3 it was 4.38; in the data set with 1542NPTX it was < 4.30; in the data set with 1542CPTX, < 4.30; in the data set on 1532NPTX, < 4.30; in the data set with 1532CPTX, < 4.30. Besides, the “changes in protein phosphorylation” value in data set [7] is “widespread changes in protein phosphorylation”. In addition, the cell invasion entry in data set [8] is on record as “inhibit human prostate cancer (PCa) cell invasion”. The metastasis entry in [9] was “inhibit”. Besides, on MKK4, the “inhibition of MKK4 kinase activity” value is given as “inhibited the kinase activity”. Further, in data set [10], the “MMP-2 expression in prostate tissue” value is recorded as “downregulates”.

In the case of `O=c1c(-c2ccc(O)cc2)coc2cccc(O)c12` [compound 8], in the data set with PC3-M cells, the anti-invasion activity result is given as “does not affect activity”.

Consider `COc1ccc(-c2coc3cc(OC)cc(O)c3c2=O)cc1` [compound 16], for which the anti-invasion activity result in the data set with PC3-M cells is “retains anti-invasion activity”.

`CN[C@@H]1C[C@H]2O[C@@](C)([C@@H]1OC)n1c3ccccc3c3c4c(c5c6ccccc6n2c5c31)C(=O)NC4` [staurosporine]: in the data set on over 9000 human proteins, the “number of proteins bound” value was 214.
